These results are taken from patent US7629156B2, “Ethanol production in fermentation of mixed sugars containing xylose” (E.I. du Pont de Nemours and Company, priority 2006, dated 2009).

Format in all cases: cell-based, Zymomonas mobilis
Test [1] relates to ZW658 strain. Description: Flask fermentation of ZW658 on glucose and xylose with various polyols. The note with it: 10 mM polyol. On the procedure:
(§1) Approximately 1 ml of well mixed sample was obtained from flask or fermentor. First the sample absorbance was measured directly with a spectrophotometer (Amersham Biosciences Ultrospec 3300pro, GE Healthcare, Piscataway, N.J., USA). If the reading was lower than 0.6 unit, no dilution was needed. If the reading was higher than 0.6 unit, the sample was diluted with culture medium until the actual reading was in the range of 0.1 to 0.6 unit. The original OD was calculated from the dilution ratio and the actual reading.
(§2) The analysis of sugars, acetate, ethanol, and other by-products was done with an Agilent 1100 series HPLC and Agilent ChemStation software for LC 3D. The column was BioRad Aminex HPX-87H(HPLC Organic Analysis Column 125-0140) with BioRad Micro-Guard Cartridge Cation-H (125-0129). The operating conditions were:
(§3) Glycerol stock of seed frozen at −80° C. was thawed, then inoculated into sterile culture tubes with mixture of 60 g/L glucose, 20 g/L xylose, 10 g/L yeast extract (YE), 10 g/L KH2PO4, 2 g/L (NH4)2SO4, and 1 g/L MgSO4. Initial pH was adjusted to 5.5 with 4 N KOH. This revival culture was grown statically overnight at 37° C. It was transferred into shake flasks with 75 g/L glucose, 25 g/L xylose, 10 g/L yeast extract (YE), 10 g/L KH2PO4, 2 g/L (NH4)2SO4, and 1 g/L MgSO4. Initial pH was adjusted to 5.5 with 4 N KOH. Growth was monitored by measuring OD600. When the OD reached approximately 5, a certain volume of the seed was withdrawn into a sterile syringe for inoculation.
In five sterilized 125 ml Erlenmeyer culture flasks (Cat. No. 30180-036, VWR International, USA), 10 ml of ZW658 strain seed culture at OD600 of approximately 5 was inoculated into each flask with 100 ml of aqueous solution containing 100 g/L glucose, 80 g/L xylose, 10 g/L yeast extract (YE), 2 g/L KH2PO4, 1 g/L MgSO4.7H2O, and 4 g/L KHCO3, and 10 mM of one of the following polyols: erythritol, sorbitol, mannitol, maltitol, or lactitol. After inoculation, the total sugar concentration was about 160 g/L due to dilution by the seed culture. Initial pH was adjusted to 5.5 with 4 N H3PO4 solution. Mixing speed was set at 150 rpm. Fermentation was conducted at 33° C. and pH was not controlled. Samples were taken periodically. Samples were filtered through 0.22 micron filters, and the filtrates were analyzed by HPLC as described in General Methods for compounds including glucose, xylose, ethanol, xylitol, and acetic acid. Samples were diluted with medium (as described in General Methods) and the OD600 was measured to monitor cell growth. […] Cultures with sorbitol or mannitol grew faster and better. After 32 hours, the OD600 were 13.94 and 13.92, respectively, for cultures supplemented with sorbitol or mannitol; meanwhile, the OD600 were 9.48, 9.02, and 9.24, respectively, for cultures supplemented with erythritol, maltitol, or lactitol. […] The presence of sorbitol or mannitol allowed more xylose utilization, without production of xylitol.

Test [2] concerns ZW658 strain. As to the kind of experiment: 1-liter fermentor, ZW658 on glucose and xylose in the presence of sorbitol and acetate. The note with it: 5.8 g/L acetate, 10 mM sorbitol. On the procedure: as §1, §2, §3
In a sterilized 1-liter fermentor (BIOSTAT® B-DCU system, Sartorius BBI System Inc., Bethlehem, Pa., USA), 50 ml of ZW658 strain seed culture at OD600 of approximately 5 was inoculated into 450 ml of aqueous solution containing sugars and medium. The final mixed broth contained 99.0 g/L glucose, 82.7 g/L xylose, 5.8 g/L acetate (in the form of potassium acetate), 10 g/L yeast extract (YE), 2 g/L KH2PO4, and 10 mM sorbitol. pH was adjusted to 5.5 with 4 N KOH solution. Mixing speed was set at 150 rpm. Fermentation was conducted at 33° C. and pH 5.5. Samples were taken periodically. Samples were filtered through 0.22 micron filters, and the filtrates were analyzed by HPLC as described in General Methods for compounds including glucose, xylose, ethanol, and acetate. Samples were also diluted with medium (as described in General Methods) and the OD600 was measured to monitor cell growth.

Test [3] relates to ZW658 strain. Description: Tube fermentation of ZW658 on glucose and xylose with various sugar alcohols (Example 13). The note with it: sugar alcohol in the medium vs control. On the procedure:
as §1, §2
In eight sterilized 50 ml screw-cap centrifuge tubes (Cat. No. 21008-178, VWR International, USA), 200 μl of ZW658 strain glycerol stock at OD600 of approximately 10 was inoculated into each flask with 25 ml of aqueous solution containing 92 g/L glucose, 82 g/L xylose, 10 g/L yeast extract (YE), 2 g/L KH2PO4, 1 g/L MgSO4.7H2O, and either 10 mM of sorbitol, arabitol, adonitol (also called ribitol), or galactitol; or 50 mM of arabitol, adonitol, or galactitol. The control had no sugar alcohol added. Initial pH was adjusted to 5.5 with 4 N H3PO4 solution. Fermentation was conducted at 33° C. and pH was not controlled. Samples were taken periodically between 0 and 40 hr. Samples were filtered through 0.22 micron filters, and the filtrates were analyzed by HPLC as described in General Methods for glucose, xylose, xylitol, and ethanol. Samples were diluted with medium (as described in General Methods) and the OD600 was measured to monitor cell growth. Results of growth and glucose utilization are given in FIGS. 20A and 20B, respectively. Results of xylose utilization and ethanol production are given in FIGS. 21A and 21B, respectively. Cultures with sorbitol or galactitol grew much faster and better than the control. Cultures with adonitol also grew better. After 40 hours, the OD600 were 7 to 8, for cultures supplemented with sorbitol or galactitol; the OD600 were about 5, for cultures supplemented with adonitol; while the OD600 were less than 1 for other cultures. […] The presence of sorbitol, galactitol, or adonitol allowed more xylose utilization, without production of xylitol.

On to `OC[C@@H](O)[C@@H](O)[C@H](O)[C@@H](O)CO` [sorbitol], for which, in the test with ZW658 strain [1] (mixed sugars), the ethanol production result is listed as “ethanol production was also better” and the xylose utilization result was “More xylose was utilized”. For the same compound, the OD600 in the test on ZW658 strain [1] (after 32 hours, total sugar about 160 g/L, 33° C.) was 13.94. For the same compound, in the test with ZW658 strain [2] (after 63.75 hours (stationary phase)), the “by product xylitol concentration” value turned out to be 3.55 g/L. Moreover, in the test with ZW658 strain [2] (after 63.75 hours), the “OD600 cells grew to” value came to 6.4, the ethanol concentration amounted to 70.0 g/L and the xylose concentration is reported as 29.6 g/L. For the same compound, in the test with ZW658 strain [2] (after 63.75 hours, 99.0 g/L glucose, 82.7 g/L xylose, 33° C., pH 5.5), the glucose concentration is on record as 0 g/L. In the test with ZW658 strain [3], the ethanol production result is recorded as “ethanol production was also better” and the xylose utilization entry is “More xylose was utilized”.
